For 36 compounds, melting point results are on record in US20060194969A1, “4-Substituted benzimidazoles and their uses as inhibitors of gastric secretion” (priority 2002, published 2006).

With `CO[C@@H]1Cc2ccccc2[C@H]1Oc1cc(C(=O)N(C)C)cc2c1nc(C)n2C.O=C(O)C(=O)O` (relative stereo) [Example 12, 4-(trans-2,3-Dihydro-2-methoxy-1-indenyloxy)-6-(N,N-dimethylaminocarbonyl)-1,2-dimethyl-1H-benzimidazole Oxalate], the melting point (commonly the temperature of the solid-liquid transition) fell in the range of 126 to 127 °C. With `Cc1nc2c(O[C@@H]3c4ccccc4C[C@H]3O)cc(C(=O)O)cc2n1C` (relative stereo) [Example 16, 4-(trans-2,3-Dihydro-2-hydroxy-1-indenyloxy)-1,2-dimethyl-1H-benzimidazole-6-carboxylic Acid] the figure was 306 °C.

Turning to `CCOC(=O)c1cc(O[C@@H]2c3c(C)ccc(C)c3C[C@H]2O)c2nc(C)n(C)c2c1` (relative stereo) [Example 20, Ethyl 4-(trans-2,3-dihydro-2-hydroxy-4,7-dimethyl-1-indenyloxy)-1,2-dimethyl-1H-benzimidazole-6-carboxylate], the melting point was 184 °C.

The compound `Cc1ccc(C)c2c1C[C@@H](O)[C@@H]2Oc1cc(C(=O)N(C)C)cc2c1nc(C)n2C` (relative stereo) [Example 22, 4-(trans-2,3-Dihydro-2-hydroxy-4,7-dimethyl-1-indenyloxy)-6-(N,N-dimethylaminocarbonyl)-1,2-dimethyl-1H-benzimidazole] gave a melting point of 134 °C. For `CCN(CCOC)C(=O)c1cc(O[C@@H]2c3ccccc3C[C@H]2O)c2nc(C)n(C)c2c1.O=C(O)C(=O)O` (relative stereo) [Example 24, 4-(trans-2,3-Dihydro-2-hydroxy-1-indenyloxy)-6-[N-(2-methoxyethyl)-N-ethyl-amino-carbonyl]-1,2-dimethyl-1H-benzimidazole Oxalate] the value was 141 °C; for `Cc1nc2c(O[C@@H]3c4ccccc4C[C@H]3O)cc(C(=O)NC3CC3)cc2n1C` (relative stereo) [Example 26, 6-(Cyclopropylaminocarbonyl)-4-(trans-2,3-dihydro-2-hydroxy-1-indenyloxy)-1,2-dimethyl-1H-benzimidazole], 148 to 149 °C; for `Cc1nc2c(N[C@@H]3c4ccccc4C[C@H]3O)cc(C(=O)N(C)C)cc2n1C` (relative stereo) [Example 51, 4-(trans-2,3-Dihydro-2-hydroxy-1-indenylamino)-6-(N,N-dimethylaminocarbonyl)-1,2-dimethyl-1H-benzimidazole], 219 to 221 °C. With `Cn1c(C2CC2)nc2c(O[C@@H]3c4ccccc4C[C@H]3O)cc(C(=O)O)cc21` (relative stereo) [Example 59, 2-Cyclopropyl-4-(trans-2,3-dihydro-2-hydroxy-1-indenyloxy)-1-methyl-1H-benzimidazole-6-carboxylic acid], the melting point was in the range of 132 to 134 °C.

In turn, `CCc1cccc(C)c1COc1cc(C(=O)OC)cc2c1nc(C)n2C` [Example 1, Methyl 4-(2-ethyl-6-methyl-benzyloxy)-1,2-dimethyl-1H-benzimidazole-6-carboxylate] gave a melting point of 157 °C. The compound `COC(=O)c1cc(OCc2c(C)cccc2C)c2nc(C)n(C)c2c1` [Example 3, Methyl 4-(2,6-dimethyl-benzyloxy)-1,2-dimethyl-1H-benzimidazole-6-carboxylate] gave a melting point of 165 to 169 °C. With `Cc1cccc(C)c1COc1cc(C(=O)O)cc2c1nc(C)n2C` [Example 4, 4-(2,6-Dimethyl-benzyloxy)-1,2-dimethyl-1H-benzimidazole-6-carboxylic Acid] the figure was 285 to 286 °C; with `Cc1nc2c(OCc3ccccc3)cc(CO)cc2n1C` [Example 5, 4-Benzyloxy-6-hydroxymethyl-1,2-dimethyl-1H-benzimidazole], 213 to 214 °C; with `COCc1cc(OCc2ccccc2)c2nc(C)n(C)c2c1` [Example 6, 4-Benzyloxy-6-methoxymethyl-1,2-dimethyl-1H-benzimidazole], 113 °C. The compound `Cc1nc2c(OCc3ccccc3)cc(C(=O)N(C)C)cc2n1C` [Example 7, 4-Benzyloxy-6-(N,N-dimethylaminocarbonyl)-1,2-dimethyl-1H-benzimidazole] had a melting point of 159 to 160 °C.

Compound `Cc1cccc(C)c1COc1cc(C(=O)N(C)C)cc2c1nc(C)n2C` [Example 9, 6-(N,N-Dimethylaminocarbonyl)-4-(2,6-dimethyl-benzyloxy)-1,2-dimethyl-1H-benzimidazole] had a melting point of 180 °C.

Compound `CCOC(=O)c1cc(NCc2c(C)cccc2CC)c2nc(C)n(C)c2c1` [Example 27, Ethyl 4-(2-ethyl-6-methyl-benzylamino)-1,2-dimethyl-1H-benzimidazole-6-carboxylate] yielded a melting point of 171 to 173 °C.

`CCOC(=O)c1cc(NCc2c(C)cccc2C)c2nc(C)n(C)c2c1` [Example 28, Ethyl 4-(2,6-dimethyl-benzylamino)-1,2-dimethyl-1H-benzimidazole-6-carboxylate] registered a melting point of 190 °C. With `CCOC(=O)c1cc(NCc2c(C)cccc2CC)c2nc(COC)n(C)c2c1` [Example 29, Ethyl 4-(2-ethyl-6-methyl-benzylamino)-2-methoxymethyl-1-methyl-1H-benzimidazole-6-carboxylate] the figure was 106 to 107 °C; with `CCOC(=O)c1cc(NCc2c(C)cccc2C)c2nc(COC)n(C)c2c1` [Example 30, Ethyl 4-(2,6-dimethyl-benzylamino)-2-methoxymethyl-1-methyl-1H-benzimidazole-6-carboxylate], 134 to 135 °C. `CCc1cccc(C)c1CNc1cc(C(=O)O)cc2c1nc(C)n2C` [Example 31, 4-(2-Ethyl-6-methyl-benzylamino)-1,2-dimethyl-1H-benzimidazole-6-carboxylic Acid] gave a melting point of 312 to 314 °C. Regarding `Cc1cccc(C)c1CNc1cc(C(=O)O)cc2c1nc(C)n2C` [Example 32, 4-(2,6-Dimethyl-benzylamino)-1,2-dimethyl-1H-benzimidazole-6-carboxylic Acid], the melting point was in the range of 315 to 318 °C. `CCc1cccc(C)c1CNc1cc(C(=O)O)cc2c1nc(COC)n2C` [Example 33, 4-(2-Ethyl-6-methyl-benzylamino)-2-methoxymethyl-1-methyl-1H-benzimidazole-6-carboxylic Acid] returned a melting point of 275 to 278 °C.

Take `COCc1nc2c(NCc3c(C)cccc3C)cc(C(=O)O)cc2n1C` [Example 34, 4-(2,6-Dimethyl-benzylamino)-2-methoxymethyl-1-methyl-1H-benzimidazole-6-carboxylic Acid]: the melting point fell in the range of 269 to 272 °C.

`Cc1cccc(C)c1CNc1cc(C(=O)NCCO)cc2c1nc(C)n2C` [Example 36, 4-(2,6-Dimethyl-benzylamino)-6-(2-hydroxyethyl-aminocarbonyl)-1,2-dimethyl-1H-benzimidazole] returned a melting point of 259 to 260 °C. With `COCc1nc2c(NCc3c(C)cccc3C)cc(C(=O)NCCO)cc2n1C` [Example 37, 4-(2,6-Dimethyl-benzylamino)-6-(2-hydroxyethyl-aminocarbonyl)-2-methoxymethyl-1-methyl-1H-benzimidazole] the figure was 186 to 187 °C; with `Cc1cccc(C)c1CNc1cc(C(N)=O)cc2c1nc(C)n2C` [Example 39, 4-(2,6-Dimethyl-benzylamino)-1,2-dimethyl-1H-benzimidazole-6-carboxamide], 272 °C. With `CCc1cccc(C)c1CNc1cc(C(=O)N(C)C)cc2c1nc(C)n2COCc1ccccc1.O=C(O)C(=O)O` [Example 48, 1-Benzyloxymethyl-6-(N,N-dimethylaminocarbonyl)-4-(2-ethyl-6-methyl-benzylamino)-2-methyl-1H-benzimidazole Oxalate] the figure was 168 to 169 °C; with `COC(=O)Nc1cccc(C)c1CNc1cc(C(=O)N(C)C)cc2c1nc(C)n2C` [Example 50, 6-(N,N-Dimethylaminocarbonyl)-4-(2-methoxycarbonylamino-6-methyl-benzylamino)-1,2-dimethyl-1H-benzimidazole], 193 to 195 °C; with `CCOC(=O)c1cc(OCc2ccccc2)c2nc(C)n(C)c2c1` [Example 52, Ethyl 4-benzyloxy-1,2-dimethyl-1H-benzimidazole-6-carboxylate], 152 °C. `COC(=O)c1cc(OCc2ccccc2)c2nc(C)n(C)c2c1` [Example 53, Methyl 4-benzyloxy-1,2-dimethyl-1H-benzimidazole-6-carboxylate] showed a melting point of 166 °C.

The compound `Cc1cccc(C)c1CNc1cc(C(=O)N2CC2)cc2c1nc(C)n2C` [Example 54, 6-(1-Aziridinylcarbonyl)-4-(2,6-dimethyl-benzylamino)-1,2-dimethyl-1H-benzimidazole] displayed a melting point of 201 to 202 °C. With `Cc1cccc(C)c1CNc1cc(C(=O)N(C)CCO)cc2c1nc(C)n2C` [Example 56, 4-(2,6-Dimethyl-benzylamino)-6-(N-2-hydroxyethyl-N-methylaminocarbonyl)-1,2-dimethyl-1H-benzimidazole] the figure was 177 to 178 °C; with `Cc1cccc(C)c1CNc1cc(C(=O)NN)cc2c1nc(C)n2C` [Example 57, 4-(2,6-Dimethyl-benzylamino)-1,2-dimethyl-1H-benzimidazole-6-carboxylic acid hydrazide], 277 to 278 °C; with `Cc1cccc(C)c1CNc1cc(CO)cc2c1nc(C)n2C` [Example 58, 4-(2,6-Dimethyl-benzylamino)-6-hydroxymethyl-1,2-dimethyl-1H-benzimidazole], 245 to 246 °C. `Cc1ccccc1CNc1cc(C(=O)N(C)C)cc2c1nc(C)n2C` [Example 61, 6-(N,N-Dimethylaminocarbonyl)-1,2-dimethyl-4-(2-methyl-benzylamino)-1H-benzimidazole] returned a melting point of 158 to 159 °C. With `Cc1coc(C)c1N(C)c1cc(C(=O)N(C)C)cc2c1nc(C)n2C` [Example 62, 6-(N,N-Dimethylaminocarbonyl)-4-(2,4-dimethyl-furan-3-yl-methylamino)-1,2-dimethyl-1H-benzimidazole] the figure was 163 to 164 °C.
